Data as given in US6632817B2, “Fluoromethoximino compounds” (priority 1997, dated 2003).

Tests used:
[1] = tested on: Puccinia recondita; assay: Puccinia test (wheat)/protective; type: in vivo; details: Puccinia recondita, 240 h, protective, application rate 250 g/ha, evaluation 10 days after inoculation, read-out: Efficacy in %
Procedure: Puccinia Test (Wheat)/Protective
(§1) Solvent: 25 parts by weight of N,N-dimethylacetamide
(§2) Emulsifier: 0.6 part by weight of alkylaryl polyglycol ether
(§3) To produce a suitable preparation of active compound, 1 part by weight of active compound is mixed with the stated amounts of solvent and emulsifier, and the concentrate is diluted with water to the desired concentration.
To test for protective activity, young plants are sprayed with the preparation of active compound at the stated application rate. After the spray coating has dried on, the plants are sprayed with a conidia suspension of Puccinia recondita. The plants remain in an incubation cabin at 20° C. and 100% relative atmospheric humidity for 48 hours.
The plants are then placed in a greenhouse at a temperature of approximately 20° C. and a relative atmospheric humidity of 80% to promote the development of rust pustules.
(§4) Evaluation is carried out 10 days after the inoculation. 0% means an efficacy which corresponds to that of the control, whereas an efficacy of 100% means that no infection is observed.

[2] = tested on: Puccinia recondite; assay: Puccinia test (wheat)/curative; type: in vivo; details: curative, application rate 250 g/ha, evaluation 10 days after inoculation
Procedure: Puccinia Test (Wheat)/Curative
as §1, §2, §3
To test for curative activity, young plants are sprayed with a conidia suspension of Puccinia recondite. The plants remain in an incubation cabin at 20° C. and 100% relative atmospheric humidity for 48 hours. The plants are subsequently sprayed with the preparation of active compound at the stated application rate.
The plants are placed in a greenhouse at a temperature of approximately 20° C. and a relative atmospheric humidity of approximately 80% to promote the development of rust pustules.
as §4

[3] = tested on: Venturia inaequalis; assay: Venturia test (apple)/protective; type: in vivo; details: Venturia inaequalis, 288 h, protective, application rate 10 g/ha, evaluation 12 days after inoculation, read-out: Efficacy in %
Procedure: Venturia Test (Apple)/Protective
(§5) Solvent: 47 parts by weight of acetone
(§6) Emulsifier: 3 parts by weight of alkylaryl polyglycol ether
as §3
To test for protective activity, young plants are sprayed with the preparation of active compound at the stated application rate. After the spray coating has dried on, the plants are inoculated with an aqueous conidia suspension of the causative organism of apple scab Venturia inaequalis and then remain in an incubation cabin at approximately 20° C. and 100% relative atmospheric humidity for 1 day.
The plants are then placed in a greenhouse at approximately 21° C. and a relative atmospheric humidity of approximately 90%.
Evaluation is carried out 12 days after the inoculation. 0% means an efficacy which corresponds to that of the control, whereas an efficacy of 100% means that no infection is observed.

[4] = tested on: Plasmopara viticola; assay: Plasmopara test (grapevine)/protective; type: in vivo; details: Plasmopara viticola, 144 h, protective, application rate 100 g/ha, evaluation 6 days after inoculation, read-out: Efficacy in %
Procedure: Plasmopara Test (Grapevine)/Protective
as §5, §6, §3
To test for protective activity, young plants are sprayed with the preparation of active compound at the stated application rate. After the spray coating has dried on, the plants are inoculated with an aqueous spore suspension of Plasmopara viticola and then remain in an incubation cabin at approximately 20° C. and 100% relative atmospheric humidity for 1 day. The plants are subsequently placed in a greenhouse at approximately 21° C. and approximately 90% relative atmospheric humidity for 5 days. The plants are then moistened and placed in an incubation cabin for 1 day.
Evaluation is carried out 6 days after the inoculation. 0% means an efficacy which corresponds to that of the control, whereas an efficacy of 100% means that no infection is observed.

[5] = logP determination by HPLC (EEC Directive 79/831 Annex V. A8); type: physicochemical; details: HPLC gradient method, acetonitrile/0.1% aqueous phosphoric acid
Procedure: The logP values are determined in accordance with EEC Directive 79/831 Annex V. A8 by HPLC (gradient method, acetonitrile/0.1% aqueous phosphoric acid).

Row | Compound | pest or weed control at 250 g/ha [1] | Efficacy in % [2] | pest or weed control at 10 g/ha [3] | pest or weed control at 100 g/ha [4] | chromatographic logP [5] | melting point
1 | CNC(=O)/C(=N\OCF)c1ccccc1Oc1nc(-c2ccc(OC(F)(F)F)cc2)ns1 [Example 22] | ≥ 80% | 100% | ≥ 99% | ≥ 98% | 3.8 | –
2 | CNC(=O)C(=NOCF)c1ccccc1Oc1ncnc(Oc2ccccc2Cl)c1F [Example 2, 2-{2-[6-(2-chlorophenoxy)-5-fluoropyrimidin-4-yloxy]-phenyl}-2-fluoromethoxyimino-N-methylacetamide] | ≥ 80% | 100% | ≥ 99% | ≥ 98% | – | 128 to 129 °C
3 | CNC(=O)C(NOCF)c1ccccc1Oc1ncnc(Oc2ccccc2[N+](=O)[O-])c1F (stereo not drawn) [drawing 101] | – | 100% | – | – | – | –
4 | CNC(=O)/C(=N\OCF)c1ccccc1Oc1nc(-c2ccc(OC(F)(F)F)cc2)ns1 [drawing 104] | – | 100% | – | – | – | –
5 | CNC(=O)/C(=N\OCF)c1ccccc1Oc1ncnc(Oc2cccc(Cl)c2C)c1F [Example 4] | – | 100% | ≥ 99% | ≥ 98% | 3.5 | –
6 | COC(=O)C(=NOCF)c1ccccc1Oc1ncnc(Oc2ccccc2Cl)c1F [Example 1, methyl {2-[6-(2-chlorophenoxy)-5-fluoropyrimidin-4-yloxy]-phenyl}-fluoromethoxyimino-acetate] | ≥ 80% | – | ≥ 99% | ≥ 98% | – | 153 to 155 °C
7 | CNC(=O)/C(=N\OCF)c1ccccc1Oc1nc(-c2cccc(C(F)(F)F)c2)ns1 [drawing 103] | – | 100% | – | – | – | –
8 | CNC(=O)/C(=N\OCF)c1ccccc1Oc1ncnc(Oc2ccccc2OC(F)F)c1F [Example 6] | ≥ 80% | 100% | ≥ 99% | ≥ 98% | 2.9 | –
9 | CNC(=O)/C(=N\OCF)c1ccccc1Oc1ncnc(Oc2ccccc2Cl)c1F [drawing 105] | – | 100% | – | – | – | –
10 | CNC(=O)/C(=N\OCF)c1ccccc1Oc1ncnc(Oc2ccccc2OC(F)F)c1F [drawing 100] | – | 100% | – | – | – | –
11 | CNC(=O)/C(=N\OCF)c1ccccc1Oc1ncnc(Oc2ccccc2C#N)c1F [drawing 102] | – | 100% | – | – | – | –
12 | CNC(=O)/C(=N\OCF)c1ccccc1Oc1ncnc(Oc2cccc(C)c2C)c1F [Example 9] | ≥ 80% | – | ≥ 99% | ≥ 98% | 3.3 | –
13 | CNC(=O)/C(=N\OCF)c1ccccc1Oc1nc(-c2cccc(C(F)(F)F)c2)ns1 [Example 28] | ≥ 80% | 100% | ≥ 99% | ≥ 98% | 3.6 | –
14 | CNC(=O)/C(=N\OCF)c1ccccc1Oc1ncnc(Oc2cccc(Cl)c2C)c1F [drawing 99] | – | 100% | – | – | – | –
15 | CNC(=O)C(=NOCF)c1ccccc1Oc1ncnc(Oc2ccccc2Cl)c1F [drawing 98] | – | 100% | – | – | – | –
16 | CNC(=O)/C(=N\OCF)c1ccccc1Oc1nc(-c2ccc(OC(F)F)cc2)ns1 [Example 26] | ≥ 80% | – | ≥ 99% | ≥ 98% | 3.2 | –
17 | CNC(=O)/C(=N\OCF)c1ccccc1Oc1ncnc(Oc2ccccc2C#N)c1F [Example 10] | ≥ 80% | 100% | – | ≥ 98% | 2.8 | –
